Measurements: ChEMBL document CHEMBL5360582, “Caryophyllene Sesquiterpenes from a Chaetomium globosum Endophyte of the Canadian Medicinal Plant Empetrum nigrum” (J Nat Prod, 2023)
In brackets after ≈: the same amount, converted by molar mass. Activity calls are given as the source filed them. The calls are words filed in the database; no cut-off is given here.

Tests used:
[1] = tested on: Candida albicans; test: Antifungal activity against Candida albicans ATCC 14053 assessed as inhibition of bacterial growth at 100 microg/ml; type: functional, organism-based; conditions: dose 100.0 µg/ml
[2] = tested on: Staphylococcus aureus; test: Antibacterial activity against Staphylococcus aureus ATCC 29213 assessed as inhibition of bacterial growth at 100 microg/ml; type: functional, organism-based; conditions: dose 100.0 µg/ml
[3] = tested on: Mycobacterium tuberculosis; test: Antimycobacterial activity against Mycobacterium tuberculosis H37Ra ATCC 25177 assessed as inhibition of bacterial growth at 100 microg/ml; type: functional, organism-based; conditions: dose 100.0 µg/ml
[4] = tested on: Pseudomonas aeruginosa; test: Antibacterial activity against Pseudomonas aeruginosa ATCC 10145 assessed as inhibition of bacterial growth at 100 microg/ml; type: functional, organism-based; conditions: dose 100.0 µg/ml
[5] = tested on: SMMC-7721; test: Cytotoxicity against human SMMC-7721 cells assessed as inhibition of cell growth incubated for 68 hrs by MTT assay; type: functional, cell-based; conditions: SMMC-7721, 68 h
[6] = tested on: Staphylococcus aureus; test: Antibacterial activity against Staphylococcus aureus ATCC 29213 assessed as inhibition of bacterial growth; type: functional, organism-based
[7] = tested on: Mycobacterium tuberculosis; test: Antimycobacterial activity against Mycobacterium tuberculosis H37Ra ATCC 25177 assessed as inhibition of bacterial growth; type: functional, organism-based

| SMILES | Activity [1] | Activity [2] | Activity [3] | Activity [4] | IC50 [5] [µM] | also measured |
| --- | --- | --- | --- | --- | --- | --- |
| CC1(C)C[C@@H]2[C@@]3(CO)C=C[C@@H](O)[C@@]3(C)CC[C@]21O | inactive | inactive | inactive | inactive | – | – |
| COc1cc([C@@H]2c3cc4c(cc3[C@@H](O[C@@H]3O[C@@H]5CO[C@@H](C)O[C@H]5[C@H](O)[C@H]3O)[C@H]3COC(=O)[C@H]23)OCO4)cc(OC)c1O [ETOPOSIDE] | – | – | – | – | 23.2 | – |
| CC1(C)C[C@@H]2/C(CO)=C\C=C/[C@@](C)(O)CC[C@]21O | inactive | inactive | inactive | inactive | – | – |
| C/C1=C/[C@@H](OC(=O)CCC(=O)O)/C=C(/C=O)[C@H]2CC(C)(C)[C@]2(O)CC1 | – | – | – | – | – | IC50 [6]: 83 µg/mL (≈ 237 µM); IC50 [7]: 36.8 µg/mL (≈ 105 µM) |
| CO[C@H]1[C@@H]2[C@@H](O)O[C@]3([C@H](OC(C)=O)C/C(C)=C\[C@@H]1OC)[C@H]2CC3(C)C | – | – | – | – | 28.3 | – |
